# Patent publication US10920230B2, “Methylotrophs for aquaculture and animal feed” (KnipBio, Inc., priority 2013, dated 2021)
# Assays:
# PR/tetO promoter = test: Fluorescence-based mCherry expression assay, pJP22T; format: cell-based, M. extorquens
# Source text: (§1) A desirable property for regulated expression systems is for levels of gene expression from the promoter to be proportional to the concentration of inducer. In order to explore the range of induction of PR/cmtO and PR/tetO, the promoters along with their respective regulatory proteins were introduced onto broad-host-range plasmids (IncP compatibility group) to create the expression vectors pLC290 and pLC291 (FIG. 8 in U.S. Ser. No. 61/863,701). […] We placed the red-fluorescent protein variant mCherry under the control of each promoter in pLC290 and pLC291 and introduced the resulting vectors (pJP18T and pJP22T) into M. extorquens. To induce expression from PR/cmtO and PR/tetO, we supplied varied concentrations of cumate (Q) and anhydrotetracycline (aTc), respectively, to M. extorquens cultures.
# (§2) Assays to measure levels of mCherry protein expression were performed as follows. For dose-dependent response curves, M. extorquens strains harboring pJP18T or pJP22T were grown to saturation in 10 mL of Hypho-succinate medium. […] Cultures were allowed to continue growth for an additional 24 hours prior to fluorescence (excitation 587 nm/emission 610 nm) and optical density (600 nm) measurements made using a Tecan Safire2 plate reader. Relative fluorescence values reported are: Relative fluorescence (A.U.)=RFU/OD600*10^−3.
# [1] = system: cumate inducible PmxaF promoter; test: Fluorescence-based mCherry expression assay, pHC115m; format: cell-based, M. extorquens; settings: uninduced 15.6±1.5
# Procedure: Assays to measure levels of mCherry protein expression were performed as follows. For dose-dependent response curves, M. extorquens strains harboring pJP18T or pJP22T were grown to saturation in 10 mL of Hypho-succinate medium. These cultures were then diluted 1:200 in fresh medium, followed by 630 μL aliquots being dispensed to clear, flat-bottom, 48-well microtiter plates (Costar). Cultures were grown for 4 hours on a plate shaking tower (Caliper) at 150 rpm in a 30° C. humidified room. After 4 hours of growth, 10 μl of fresh medium containing Q or aTc was added to supply Q and aTc at desired concentrations. Cultures were allowed to continue growth for an additional 24 hours prior to fluorescence (excitation 587 nm/emission 610 nm) and optical density (600 nm) measurements made using a Tecan Safire2 plate reader. Relative fluorescence values reported are: Relative fluorescence (A.U.)=RFU/OD600*10^−3.
# PR/cmtO promoter = test: Fluorescence-based mCherry expression assay, pJP18T; format: cell-based, M. extorquens
# Source text: as §1, §2
# [2] = system: wild-type B. fungorum LB400; test: microbe, parasite or virus in culture; settings: Paraburkholderia fungorum
# Procedure: The minimal inhibitory concentration (MIC) of formaldehyde was determined by comparing the rate and extent of colony formation of wild-type B. fungorum LB400 to that of the flhA mutants CM363K.1 and CM363.1 on solid medium containing succinate as a growth substrate with various concentrations of formaldehyde. Formaldehyde was added to the plates immediately prior to the addition of the molten agar.
structure (smiles),measurement,setting,value
"CC(C)c1ccc(C(=O)O)cc1 [Q, p-isopropyl benzoate]",relative fluorescence (crosstalk),"PR/tetO promoter; pJP22T with the non-cognate inducer, grown in succinate, uninduced 1.0",1.1 A.U.
same,"relative fluorescence, induced",[1],157.1±3.7 A.U.
same,induction (regulatory range),PR/cmtO promoter; induced versus uninduced,10 fold
"Cc1c2c(c(O)c3c(O)cccc13)C(=O)[C@]1(O)C(=O)C(C(N)=O)=C(O)[C@@H](N(C)C)[C@@H]1C2 [aTc, anhydrotetracycline]",induction (regulatory range),PR/tetO promoter; induced versus uninduced,30 fold
same,relative fluorescence (crosstalk),"PR/cmtO promoter; pJP18T with the non-cognate inducer, grown in succinate, uninduced 4.6",4.2 A.U.
C=O [formaldehyde],MIC,[2],200 µM
